How the values were obtained:
[1] = test system: α-SMA expression induced by TGFβ1 in dermal fibroblasts; assay: Fibrosis inhibition evaluation 2: immunofluorescent staining of α-SMA in dermal fibroblasts; assay type: cell-based, mice; details: 10 μM, TGFβ1 10 ng/ml, 48 hours, FIG. 7
Procedure: In the same manner as in Test Example 5, dermal fibroblasts were isolated from mice, and sterilized cover glass (diameter: 12 mm) was placed in a 12-well plate. On the cover glass, 2.5×10^5 cells were seeded and grown. After 24 hours, the medium was replaced with a medium free of fetal bovine serum, and the cells were cultured for another 24 hours. Separately, cardiac fibroblasts were isolated from 1 to 2-day-old rats and treated in the same manner as for the dermal fibroblasts. Thereafter, 10 ng/ml TGFβ1 was added to the dermal fibroblasts, and 2 ng/ml TGFβ2 was added to the cardiac fibroblasts, followed by culturing the cells for 48 hours. At the same time as TGFβ was added, 10 μM of a test compound (compound 011), 10 μM of Pyr 2 (conventional inhibitor), or DMSO (solvent control) was also added. Separately, cultured cells to which TGFβ-free phosphate buffered saline (PBS) was added were also prepared. […] After blocking with 1% bovine serum albumin, α-SMA was detected using anti-α-SMA antibody (Sigma) as the primary antibody and anti-mouse IgG antibody (Molecular Probes) fused with Alexa 488 as the secondary antibody, and an image was acquired using a fluorescence microscope (Keyence) with a 20× objective lens. The average fluorescence brightness (fluorescence intensity/pixel) per cell area was calculated and analyzed using Image J software.

TRPC6 channel = molecular target: T1, TRPC6 channel (Homo sapiens, UniProt Q9Y210); assay: Electrophysiological evaluation (whole-cell patch) using HEK293 cells transiently expressing TRPC6 channel; assay type: cell-based; details: 30 μM for 30 seconds, carbachol 100 μM, holding potential −50 mV
T1 construct: expressed in transfected cells; host or cells: HEK293
T1 sequence (Q9Y210 1-931): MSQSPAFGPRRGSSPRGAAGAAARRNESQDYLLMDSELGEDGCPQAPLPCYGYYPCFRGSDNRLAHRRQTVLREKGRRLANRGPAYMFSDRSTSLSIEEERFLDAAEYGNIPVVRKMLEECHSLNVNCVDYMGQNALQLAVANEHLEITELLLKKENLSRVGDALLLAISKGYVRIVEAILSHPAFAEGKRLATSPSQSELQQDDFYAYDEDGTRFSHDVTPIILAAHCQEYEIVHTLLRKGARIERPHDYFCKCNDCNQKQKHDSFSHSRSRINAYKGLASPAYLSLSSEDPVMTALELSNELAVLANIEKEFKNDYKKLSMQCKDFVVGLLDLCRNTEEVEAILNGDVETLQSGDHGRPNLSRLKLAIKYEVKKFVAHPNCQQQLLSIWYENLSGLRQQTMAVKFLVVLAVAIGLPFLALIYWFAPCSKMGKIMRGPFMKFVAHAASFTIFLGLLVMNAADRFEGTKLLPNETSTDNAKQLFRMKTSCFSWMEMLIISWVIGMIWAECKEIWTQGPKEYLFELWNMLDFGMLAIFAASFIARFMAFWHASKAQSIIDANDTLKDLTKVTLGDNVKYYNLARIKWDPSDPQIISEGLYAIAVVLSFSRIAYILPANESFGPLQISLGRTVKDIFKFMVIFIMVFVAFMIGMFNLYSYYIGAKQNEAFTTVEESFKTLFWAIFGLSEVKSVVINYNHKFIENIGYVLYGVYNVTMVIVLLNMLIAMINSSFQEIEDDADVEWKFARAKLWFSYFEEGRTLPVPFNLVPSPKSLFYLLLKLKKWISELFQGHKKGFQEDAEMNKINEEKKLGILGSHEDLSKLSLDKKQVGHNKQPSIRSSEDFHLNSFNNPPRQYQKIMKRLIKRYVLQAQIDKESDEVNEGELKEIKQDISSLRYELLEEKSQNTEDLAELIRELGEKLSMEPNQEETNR
Procedure: Evaluation was performed using TRPC6-expressing cells cultured in the same manner as in Test Example 1. The transfected cells were placed in a chamber set in a microscope, and TRPC6 current was measured with a patch glass electrode (5 to 10 MΩ) in whole-cell mode. The extracellular solution and intracellular solution used in this evaluation are listed below.
Extracellular Solution: 140 mM NaCl, 5 mM KCl, 1 mM CaCl2, 1.2 mM MgCl2, 10 mM Glucose, 10 mM HEPES (pH 7.4)
Intracellular Solution: 120 mM CsOH, 120 mM Aspartate, 20 mM CsCl, 2 mM MgCl2, 1.5 mM CaCl2, 5 mM EGTA, 10 mM Glucose, 10 mM HEPES, 2 mM ATP-Na, 0.1 mM GTP (pH 7.4)
The holding potential was fixed at −50 mV. TRPC current was evoked by adding carbachol (100 μM) to the cells. Evaluation was performed on the change in current caused by adding 30 μM of a test compound (compound 011) to the cells for 30 seconds after 20 seconds from the addition of carbachol.

O=C(O)c1cnc(N2CCN(c3noc4cccc(C(F)(F)F)c34)CC2)c(Cl)c1 [Compound 011, 5-chloro-6-(4-(4-(trifluoromethyl)benzo[d]isoxazol-3-yl)piperazin-1-yl) nicotinic acid] was tested, and the “expression of α-SMA induced by TGFβ (immunofluorescent staining)” value [1] was “almost completely suppressed the expression of α-SMA” and the “change in TRPC6 current evoked by carbachol” value (TRPC6 channel) was “significant decrease in the amount of current”.
